Our source for the IC50 and half-life values is patent US20220274980A1, “PHARMACOLOGICAL INHIBITORS OF THE ENL YEATS DOMAIN” (priority 2019, published 2022).

Where two headings read alike, the source gives them in different places.

Data set [1] has as its target T1, ENL(YEATS)-HiBiT (Homo sapiens, UniProt Q03111).
T1 sequence (Q03111 1-138 limits assumed): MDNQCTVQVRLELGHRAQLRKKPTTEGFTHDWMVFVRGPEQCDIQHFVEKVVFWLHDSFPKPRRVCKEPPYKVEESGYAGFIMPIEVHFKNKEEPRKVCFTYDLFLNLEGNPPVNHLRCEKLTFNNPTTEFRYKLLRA
The settings on record: read-out: ENL YEATS CETSA (IC50); Table 2; OCI/AML-2 cells expressing ENL(YEATS)-HiBiT. In general terms: HiBiT is a short tag that completes a luciferase, so light tracks the accessible tagged protein.

The next data set addresses T2, BRD4 bromodomain 1 (BD1) (Homo sapiens, UniProt O60885).
T2 construct: Selectivity against BRD4 bromodomain 1 (BD1), measured by HTRF; His; purchased Cayman 11720
The data set can be described thus: BRD4 (BD1)-H4 tetra-acetylated HTRF histone-binding assay. In short, it runs like this: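 Recombinant BRD4 BD1 (10 nM) was combined with 13.3 nM biotinylated tetra-acetylated H4 peptide, Eu-anti-His antibody and APC-streptavidin in HEPES buffer, pH 7. Compound was pin-transferred and plates incubated ≥2 h before HTRF reading (665/620 nm ratio). Percent inhibition was normalised to vehicle (maximum) and no-peptide (minimum) wells.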
Background: TR-FRET usually uses a lanthanide donor and a delayed reading to cut background.

In data set [2] the target is T1, ENL(YEATS)-HiBiT. In words: cell-based.
The target in data set [3] is T3, ENL YEATS domain (association with H3K27cr) (Homo sapiens, UniProt Q03111).
T3 sequence (Q03111 1-148): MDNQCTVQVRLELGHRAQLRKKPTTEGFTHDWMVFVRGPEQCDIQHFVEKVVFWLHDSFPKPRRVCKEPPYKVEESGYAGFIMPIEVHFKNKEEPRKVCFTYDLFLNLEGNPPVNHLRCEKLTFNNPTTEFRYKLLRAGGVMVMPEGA
The data set can be described thus: biochemical. To be noted: ENL (YEATS)-H3K27cr HTRF (IC50, μM).

Data set [4] is described as follows: Half-life in mouse liver microsomes. Format: in vitro ADME.
Setting [5] is: read-out: t1/2 (min) mouse liver microsomes.
Where [6] appears, read: without NADPH, read-out: t1/2 mouse (min liver microsomes (without NADPH)).

`O=C(NC1CCCCC1O)c1ccc2nc(-c3ccccc3)cn2c1` (centres unmarked) [Compound 11]: the IC50 was greater than 100 µM on ENL(YEATS)-HiBiT [1]; greater than 50 µM at BRD4 bromodomain 1 (BD1) (Table 1); greater than 50 µM on BRD4 bromodomain 1 (BD1) (Table 2); greater than 100 µM on ENL(YEATS)-HiBiT [2]; greater than 50 µM in data set [3] (Table 1); greater than 50 µM in data set [3] (Table 2).
As to `CC(C)NC(=O)c1ccc2nc(-c3ccc(OC(F)(F)F)cc3)cn2c1` [Compound 19], the IC50 on ENL(YEATS)-HiBiT [1] was greater than 100 µM; on BRD4 bromodomain 1 (BD1) (Table 1), greater than 50 µM; on BRD4 bromodomain 1 (BD1) (Table 2), greater than 50 µM; on ENL(YEATS)-HiBiT [2], greater than 100 µM; in data set [3] (Table 1) it was greater than 50 µM; in data set [3] (Table 2), greater than 50 µM.
On to `CCC(CC)NC(=O)c1ccc2nc(-c3ccccc3)cn2c1` [Compound 13], for which the IC50 at ENL(YEATS)-HiBiT [1] is greater than 100 µM; on BRD4 bromodomain 1 (BD1) (Table 1) it was greater than 50 µM; at BRD4 bromodomain 1 (BD1) (Table 2), greater than 50 µM; against ENL(YEATS)-HiBiT [2], greater than 100 µM; in data set [3] (Table 1), greater than 50 µM; in data set [3] (Table 2), greater than 50 µM.
On to `CC1CCN(CCNS(=O)(=O)Nc2cccc(-c3cn4cc(C(=O)NC5CCC5)ccc4n3)c2)CC1` [Compound 100], for which the IC50 against ENL(YEATS)-HiBiT [2] stood at 0.238 µM; in data set [3] (Table 1) it was 0.029 µM; in data set [3] (Table 2) it was 0.029 µM. Moreover, the half-life was 4.04 min in data set [4] (setting [5]) and 463 min in data set [4] (setting [6]).
On to `O=C(CCCCN1CCCCC1)Nc1cccc(-c2cn3cc(C(=O)NC4CCC4)ccc3n2)c1` [Compound 103], for which the results for the IC50 (on ENL(YEATS)-HiBiT [2]; in data set [3] (Table 1); in data set [3] (Table 2)) were 2.2 µM, 0.696 µM and 0.696 µM, respectively. Moreover, the half-life in data set [4] (setting [5]) was determined as 13.1 min; in data set [4] (setting [6]) it was 16.1 min.
Take `O=C(NC1CCC1)c1ccc2nc(-c3cccc(NS(=O)(=O)CCCN4CCCCC4)c3)cn2c1` [Compound 104]: the IC50 was 1.03 µM on ENL(YEATS)-HiBiT [2], 0.134 µM in data set [3] (Table 1) and 0.134 µM in data set [3] (Table 2). In data set [4] (setting [5]), the half-life came to 14.5 min.
For the compound `COC1CCN(CCNS(=O)(=O)Nc2cccc(-c3cn4cc(C(=O)NC5CCC5)ccc4n3)c2)CC1` [Compound 94], the IC50 against ENL(YEATS)-HiBiT [2] turned out to be 1.52 µM; in data set [3] (Table 1), 0.197 µM; in data set [3] (Table 2), 0.197 µM. Moreover, the half-life in data set [4] (setting [5]) is 5.23 min; in data set [4] (setting [6]), 774 min.
With `CC(C)NC(=O)c1ccc2nc(-c3ccccc3C(F)(F)F)cn2c1` [Compound 6], the IC50 was greater than 100 µM at ENL(YEATS)-HiBiT [1]; greater than 50 µM at BRD4 bromodomain 1 (BD1) (Table 1); greater than 50 µM at BRD4 bromodomain 1 (BD1) (Table 2); greater than 100 µM at ENL(YEATS)-HiBiT [2]; greater than 50 µM in data set [3] (Table 1); greater than 50 µM in data set [3] (Table 2).
Regarding `O=C(CCN1CCCCC1=O)Nc1cccc(-c2cn3cc(C(=O)NC4CCC4)ccc3n2)c1` [Compound 109], the IC50 on ENL(YEATS)-HiBiT [2] was 8.13 µM; in data set [3] (Table 1) it was 0.265 µM; in data set [3] (Table 2), 0.265 µM. In addition, the half-life in data set [4] (setting [5]) amounted to 3.46 min.
As for `O=C(CN1CCCCC1)Nc1cccc(-c2cn3cc(C(=O)NC4CCC4)ccc3n2)c1` [Compound 112], the IC50 was 1.07 µM against ENL(YEATS)-HiBiT [2], 0.172 µM in data set [3] (Table 1) and 0.172 µM in data set [3] (Table 2). For the same compound, the half-life in data set [4] (setting [5]) was determined as 6.16 min.
Consider `CC1(C)CCN(CCNS(=O)(=O)Nc2cccc(-c3cn4cc(C(=O)NC5CCC5)ccc4n3)c2)CC1` [Compound 101], for which the IC50 against ENL(YEATS)-HiBiT [2] worked out at 0.297 µM; in data set [3] (Table 1) it was 0.062 µM; in data set [3] (Table 2), 0.062 µM. Also, the half-life was 2.29 min in data set [4] (setting [5]) and 405 min in data set [4] (setting [6]).
As for `O=C(NC1CCC1)c1ccc2nc(-c3cccc(S(=O)(=O)NCCCN4CCCCC4)c3)cn2c1` [Compound 105], the IC50 against ENL(YEATS)-HiBiT [2] was found to be 3.24 µM; in data set [3] (Table 1), 0.84 µM; in data set [3] (Table 2) it was 0.84 µM. Also, the half-life in data set [4] (setting [5]) was 9.7 min.
With `O=C(NC1CCC1)c1ccc2nc(-c3cccc(NS(=O)(=O)CCN4CCCCC4)c3)cn2c1` [Compound 106], the values for the IC50 (at ENL(YEATS)-HiBiT [2]; in data set [3] (Table 1); in data set [3] (Table 2)) were 1.24 µM, 0.027 µM and 0.027 µM, respectively. For the same compound, in data set [4] (setting [5]), the half-life worked out at 7.83 min.
Regarding `CC(C)NC(=O)c1ccc2nc(-c3ccc(C(F)(F)F)cc3)cn2c1` [Compound 7], the IC50 at ENL(YEATS)-HiBiT [1] was greater than 100 µM; on BRD4 bromodomain 1 (BD1) (Table 1), greater than 50 µM; on BRD4 bromodomain 1 (BD1) (Table 2), greater than 50 µM; at ENL(YEATS)-HiBiT [2] it was greater than 100 µM; in data set [3] (Table 1), greater than 50 µM; in data set [3] (Table 2) it was greater than 50 µM.
With `O=C(NC1CCC(O)CC1)c1ccc2nc(-c3ccccc3)cn2c1` (centres unmarked) [Compound 2], the IC50 is greater than 100 µM on ENL(YEATS)-HiBiT [1]; greater than 50 µM at BRD4 bromodomain 1 (BD1) (Table 1); greater than 50 µM on BRD4 bromodomain 1 (BD1) (Table 2); greater than 100 µM on ENL(YEATS)-HiBiT [2]; greater than 50 µM in data set [3] (Table 1); greater than 50 µM in data set [3] (Table 2).
As to `CC(C)NC(=O)c1ccc2nc(-c3cccc(OC(F)(F)F)c3)cn2c1` [Compound 3], the IC50 was greater than 100 µM at ENL(YEATS)-HiBiT [1]; greater than 50 µM on BRD4 bromodomain 1 (BD1) (Table 1); greater than 50 µM on BRD4 bromodomain 1 (BD1) (Table 2); greater than 100 µM on ENL(YEATS)-HiBiT [2]; 3.5 µM in data set [3] (Table 1); 3.5 µM in data set [3] (Table 2).
With `CC(C)NC(=O)c1ccc2nc(-c3ccccc3OC(F)(F)F)cn2c1` [Compound 12], the IC50 on ENL(YEATS)-HiBiT [1] was greater than 100 µM; at BRD4 bromodomain 1 (BD1) (Table 1) it was greater than 50 µM; at BRD4 bromodomain 1 (BD1) (Table 2) it was greater than 50 µM; on ENL(YEATS)-HiBiT [2] it was greater than 100 µM; in data set [3] (Table 1), greater than 50 µM; in data set [3] (Table 2), greater than 50 µM.
Regarding `COc1ccccc1-c1cn2cc(C(=O)NC(C)C)ccc2n1` [Compound 10], the IC50 at ENL(YEATS)-HiBiT [1] was greater than 100 µM; at BRD4 bromodomain 1 (BD1) (Table 1) it was greater than 50 µM; on BRD4 bromodomain 1 (BD1) (Table 2), greater than 50 µM; on ENL(YEATS)-HiBiT [2], greater than 100 µM; in data set [3] (Table 1), greater than 50 µM; in data set [3] (Table 2), greater than 50 µM.
As for `Cc1ccc(-c2cn3cc(C(=O)NC(C)C)ccc3n2)cc1C` [Compound 25], the IC50 is greater than 100 µM on ENL(YEATS)-HiBiT [1]; greater than 50 µM on BRD4 bromodomain 1 (BD1) (Table 1); greater than 50 µM at BRD4 bromodomain 1 (BD1) (Table 2); greater than 100 µM on ENL(YEATS)-HiBiT [2]; greater than 50 µM in data set [3] (Table 1); greater than 50 µM in data set [3] (Table 2).
As for `O=C(NC1(c2ccccc2)CCC1)c1ccc2nc(-c3ccccc3)cn2c1` [Compound 83], the IC50 (on ENL(YEATS)-HiBiT [1]; at ENL(YEATS)-HiBiT [2]; in data set [3] (Table 1); in data set [3] (Table 2)) was greater than 50 µM throughout.
Turning to `CC(C)NC(=O)c1ccc2nc(-c3cccc(C(F)(F)F)c3)cn2c1` [Compound 21], the IC50 at ENL(YEATS)-HiBiT [1] is greater than 100 µM; at BRD4 bromodomain 1 (BD1) (Table 1), greater than 50 µM; on BRD4 bromodomain 1 (BD1) (Table 2), greater than 50 µM; on ENL(YEATS)-HiBiT [2], greater than 100 µM; in data set [3] (Table 1), 15 µM; in data set [3] (Table 2), 15 µM.
In the case of `CC(C)N(C)C(=O)c1ccc2nc(-c3ccccc3)cn2c1` [Compound 8], the IC50 is greater than 100 µM at ENL(YEATS)-HiBiT [1]; greater than 50 µM on BRD4 bromodomain 1 (BD1) (Table 1); greater than 50 µM on BRD4 bromodomain 1 (BD1) (Table 2); greater than 100 µM against ENL(YEATS)-HiBiT [2]; greater than 50 µM in data set [3] (Table 1); greater than 50 µM in data set [3] (Table 2).
Consider `CC(C)(C)C1CC(NC(=O)c2ccc3nc(-c4ccccc4)cn3c2)C1` (centres unmarked) [Compound 120], for which the IC50 (at ENL(YEATS)-HiBiT [1]; against ENL(YEATS)-HiBiT [2]; in data set [3] (Table 1); in data set [3] (Table 2)) was greater than 50 µM in each case.
Consider `O=C(NC1CC(F)(F)C1)c1ccc2nc(-c3ccccc3)cn2c1` [Compound 75], for which the IC50 (at ENL(YEATS)-HiBiT [1]; at ENL(YEATS)-HiBiT [2]; in data set [3] (Table 1); in data set [3] (Table 2)) was greater than 50 µM in each case.
Regarding `O=C(NC1(CO)CCC1)c1ccc2nc(-c3ccccc3)cn2c1` [Compound 72], the IC50 (on ENL(YEATS)-HiBiT [1]; against ENL(YEATS)-HiBiT [2]; in data set [3] (Table 1); in data set [3] (Table 2)) was greater than 50 µM in each case.

One may read the IC50 as the point on the concentration scale where inhibition reaches its midpoint.
